The test relates to Plasmopara viticola. In words: Plasmopara viticola/Grape/Curative (Grape Downy Mildew). It counts as in vivo. The following applies: 200 ppm; grape seedlings cv. Gutedel, inoculated one day before application, assessed 4-6 days after application. On the procedure:
Plasmopara viticola/Grape/Curative (Grape Downy Mildew)
5-week-old grape seedlings cv. Gutedel are inoculated by spraying a sporangia suspension on their lower leaf surface one day before application. The inoculated grape plants are sprayed in a spray chamber with the formulated test compound diluted in water. The inoculated test plants are incubated at 22° C. and 100% rh in a greenhouse and the percentage leaf area covered by disease is assessed when an appropriate level of disease appears on untreated check plants (4-6 days after application).

Among the data in patent publication US20120258990A1 (priority 2009, published 2012) are disease control values, retold here.

`Cc1cc(C(F)(F)F)nn1CC(=O)N(C)CCCc1nc(C(=O)N(C)[C@@H]2CCCc3ccccc32)cs1` [Compound I.d.55, 2-(3-{methyl-[2-(5-methyl-3-trifluoromethyl-pyrazol-1-yl)-acetyl]-amino}-propyl)-thiazole-4-carboxylic acid methyl-(R)-1,2,3,4-tetrahydro-naphthalen-1-yl-amide]: the disease control entry was “at least 80%”.
